Values after ≈ are worked out from the molar mass of the structure shown. Read-outs that look alike come from different tables or passages of the source.
Key:
[1] = cited from earlier work
[2] = in vitro; settings: human, CC50 (μg/mL)
[3] = tested on: Staphylococcus aureus strain LMG15975; test: MIC by broth micro-dilution, AM3/PBS 1:1; assay type: cell-based
Experimental: (§1) At first (Table 1), MIC is determined by broth micro-dilution method. The test medium is Antibiotic Medium 3 (AM3; Difco Ltd) mixed with Phosphate Buffered Saline (PBS) in proportions 1:1. Selected MIC values are verified using cation-adjusted Mueller Hinton Broth (MHB; BD). Cell concentration of tested pathogen is adjusted to between 3 and 5×10^5 cells per ml. To verify cell concentration of tested pathogen, viable cell counts are performed directly after each MIC-test by dilution method with PBS as a dilution solvent. Cells are counted on the agar plates with 50% strength Vegetable Peptone Broth (50% VPB; Oxoid Ltd) after 16 to 20 h of incubation at 37° C.
(§2) Cells of pathogen suspended in test medium are distributed to the wells and the plates are incubated for 16 to 20 h at 37° C. Negative controls are wells with the test medium only and positive controls are wells with the pathogen in test medium. The MIC is defined as the lowest concentration of each compound with no visible growth of pathogen.
Example compounds of formula I were examined for antibacterial activity against the Gram-positive bacterium Staphylococcus aureus strain LMG15975 using the above described method (Table 1).

[4] = Cytotoxicity assay, WST-8; settings: human, HepG2 cells, CC50 (μg/mL)
[5] = tested on: A. baumannii; test: MIC by broth micro-dilution; assay type: cell-based; settings: Acinetobacter baumannii, A. baumannii (G−), Table 2; read-out: MIC (μg/ml) A. baumannii
Experimental: as §1, §2

[6] = tested on: Bacillus cereus; test: MIC by broth micro-dilution; assay type: cell-based; settings: Table 4, read-out: MIC (μg/ml) B. cereus
Experimental: as §1, §2

[7] = tested on: M. frederiksbergense; test: MIC by broth micro-dilution; assay type: cell-based; settings: Table 4; read-out: MIC (μg/ml) M. frederiksbergense
Experimental: as §1, §2

[8] = tested on: E. faecium; test: Antimicrobial Susceptibility Test by Broth Microdilution, M07-A9 CLSI; assay type: cell-based; settings: Enterococcus faecium; E. faecium 7, Vancomycin-resistant, Table 5; read-out: MIC
[9] = tested on: E. faecalis; test: as above; assay type: cell-based; settings: Enterococcus faecalis
[10] = tested on: S. epidermidis; test: as above; assay type: cell-based; settings: Staphylococcus epidermidis
[11] = tested on: S. aureus; test: as above; assay type: cell-based; settings: Staphylococcus aureus
[12] = tested on: mupirocin-resistant strains of Staphylococcus aureus; test: MIC against mupirocin-resistant strains; assay type: cell-based; settings: Staphylococcus aureus; all 4 strains (V55, V86, V308, V321); read-out: MIC values for mupirocin
Experimental: as §1, §2

[13] = Kong et al 2005; cited from earlier work
[14] = reference markers for Caco-2 assay
[15] = LMG15975, S. aureus LMG15975, Table 1, read-out: MIC
[16] = LMG15975, S. aureus LMG15975, Table 1, read-out: MIC (μg/ml)
[17] = LMG15975, S. aureus (G+), Table 2, read-out: MIC (μg/ml) S. aureus
[18] = E. faecalis 14, Vancomycin-resistant
[19] = E. faecalis 24, Vancomycin-sensitive, Table 5
[20] = S. epidermis RO7, Methicillin-sensitive, Table 5
[21] = S. epidermis Staph 1, Methicillin-resistant
[22] = S. epidermis TA12, Methicillin-resistant, Table 5
[23] = ATCC29213, S. aureus ATCC29213, QC strain, Table 5
[24] = S. aureus 7280, Methicillin-resistant
[25] = S. aureus MO17, Methicillin-sensitive, Table 5
[26] = S. aureus PICI, Methicillin-resistant, Table 5
[27] = LMG15975, S. aureus LMG 15975 (SLU), Methicillin-resistant, Table 5, read-out: MIC (μg/mL)

Compound: Nc1nc2c(ncn2COCCO)c(=O)[nH]1 [Acyclovir]
- absorption in man (%) [1, 14]: 30%

Compound: CCCCCCCCC[C@@H]1CC(O)=C(C(=O)CCC)C(=O)O1 [Ex. 2A, (R)-3-butyryl-4-hydroxy-6-nonyl-5,6-dihydro-2H-pyran-2-one]
- CC50 at 48 h [2]: 27 µM
- MIC [3, 15]: 3.2 to 6.4 µM
- MIC [3, 16]: 1 to 2 µg/mL

Compound: CCCCCCCCC[C@H]1CC(O)=C(C(=O)CCC)C(=O)O1 [Ex. 2B, (S)-3-butyryl-4-hydroxy-6-nonyl-5,6-dihydro-2H-pyran-2-one]
- CC50 at 48 h [2]: 25 µM
- MIC [3, 15]: 1.3 to 1.9 µM
- MIC [3, 16]: 0.4 to 0.6 µg/mL

Compound: CCCCCCC/C=C/C1CC(O)=C(C(=O)CCC)C(=O)O1 (stereo not shown) [Ex. 4, (E)-3-butyryl-6-(non-1-en-1-yl)-4-hydroxy-5,6-dihydro-2H-pyran-2-one]
- CC50 at 48 h [2]: 36 µM
- MIC [3, 15]: 2.6 to 3.9 µM
- MIC [3, 16]: 0.8 to 1.2 µg/mL

Compound: CCCCCCCCCC1CC(O)=C(C(=O)CC)C(=O)O1 (stereo not shown) [Ex. 5, 4-hydroxy-6-nonyl-3-propionyl-5,6-dihydro-2H-pyran-2-one]
- CC50 at 48 h ([4]; HepG2, 48 hours, Table 1): 50 µM
- MIC [5]: 32 to 48 µg/mL (≈ 108 to 162 µM)
- MIC [6]: ≤ 1 µg/mL
- MIC [3, 17]: 0.7 µg/mL
- MIC [3, 15]: 2.2 µM
- MIC [3, 16]: 0.65 µg/mL
- MIC ([3]; LMG15975, Table 4, read-out: MIC (μg/ml) S. aureus): 0.7 µg/mL

Compound: CCCCCCCCCCC1CC(O)=C(C(=O)CC)C(=O)O1 (stereo not shown) [Ex. 10, 6-decyl-4-hydroxy-3-propionyl-5,6-dihydro-2H-pyran-2-one]
- MIC [7]: ≤ 0.5 µg/mL
- MIC [6]: ≤ 1 µg/mL
- CC50 at 48 h [2]: 60 µM
- MIC [3, 15]: 1.3 to 2.6 µM
- MIC [3, 16]: 0.4 to 0.8 µg/mL

Compound: CCCCCCCCC1CC(O)=C(C(=O)CCC)C(=O)O1 (stereo not shown) [Ex. 13, 3-butyryl-4-hydroxy-6-octyl-5,6-dihydro-2H-pyran-2-one]
- CC50 at 48 h ([4]; HepG2, 48 hours, Table 1): 30 µM
- MIC [5]: 24 to 32 µg/mL (≈ 81 to 108 µM)
- MIC [3, 17]: 0.8 to 1.5 µg/mL
- MIC [3, 15]: 2.7 to 5.1 µM
- MIC [3, 16]: 0.8 to 1.5 µg/mL

Compound: CCCCCCCCCCCC1CC(O)=C(C(=O)CCC)C(=O)O1 (stereo not shown) [Ex. 16, 3-butyryl-4-hydroxy-6-undecyl-5,6-dihydro-2H-pyran-2-one]
- MIC [8]: 2 µg/mL (≈ 5.91 µM)
- MIC [5]: < 4 µg/mL
- MIC [9, 18]: 1 µg/mL (≈ 2.95 µM)
- MIC [9, 19]: 1 µg/mL (≈ 2.95 µM)
- CC50 at 48 h [2]: 19 µM
- MIC [10, 20]: 0.5 µg/mL (≈ 1.48 µM)
- MIC [10, 21]: 0.5 µg/mL (≈ 1.48 µM)
- MIC [10, 22]: 1 µg/mL (≈ 2.95 µM)
- MIC [11, 23]: 4 µg/mL (≈ 11.8 µM)
- MIC [11, 24]: 8 µg/mL (≈ 23.6 µM)
- MIC [11, 25]: 4 µg/mL (≈ 11.8 µM)
- MIC [11, 26]: 4 µg/mL (≈ 11.8 µM)
- MIC [3, 17]: 0.1 to 0.2 µg/mL
- MIC [3, 27]: 0.1 to 0.2 µg/mL
- MIC [3, 15]: 0.3 to 0.6 µM
- MIC [3, 16]: 0.1 to 0.2 µg/mL

Compound: CCCCCCCCCCCC1CC(O)=C(C(=O)CCCC)C(=O)O1 (stereo not shown) [Ex. 17, 4-hydroxy-3-pentanoyl-6-undecyl-5,6-dihydro-2H-pyran-2-one]
- CC50 at 48 h ([4]; HepG2, 48 hours, Table 1): 12 µM
- CC50 at 48 h ([4]; HepG2, Table 5): 12 µM
- MIC [8]: 1 µg/mL (≈ 2.84 µM)
- MIC [6]: ≤ 1 µg/mL
- MIC [9, 18]: 1 µg/mL (≈ 2.84 µM)
- MIC [9, 19]: 1 µg/mL (≈ 2.84 µM)
- MIC [10, 20]: 0.5 µg/mL (≈ 1.42 µM)
- MIC [10, 21]: 0.5 µg/mL (≈ 1.42 µM)
- MIC [10, 22]: 0.5 µg/mL (≈ 1.42 µM)
- MIC [11, 23]: 16 µg/mL (≈ 45.4 µM)
- MIC [11, 24]: 8 µg/mL (≈ 22.7 µM)
- MIC [11, 25]: 4 µg/mL (≈ 11.3 µM)
- MIC [11, 26]: 8 µg/mL (≈ 22.7 µM)
- MIC [3, 27]: 0.1 to 0.2 µg/mL
- MIC [3, 15]: 0.3 to 0.6 µM
- MIC [3, 16]: 0.1 to 0.2 µg/mL

Compound: CCCCCCCCCC1CC(O)=C(C(=O)CCCCC)C(=O)O1 (stereo not shown) [Ex. 18, 3-hexanoyl-4-hydroxy-6-nonyl-5,6-dihydro-2H-pyran-2-one]
- CC50 at 48 h ([4]; HepG2, 48 hours, Table 1): 15 µM
- MIC [5]: 4 to 8 µg/mL (≈ 11.8 to 23.6 µM)
- MIC [3, 17]: 0.6 to 0.8 µg/mL
- MIC [3, 15]: 1.8 to 2.4 µM
- MIC [3, 16]: 0.6 to 0.8 µg/mL

Compound: CCCC(=O)C1=C(O)CC(CCCCCCCC#N)OC1=O (stereo not shown) [Ex. 19, 8-(5-butyryl-4-hydroxy-6-oxo-3,6-dihydro-2H-pyran-2-yl)octanenitrile]
- CC50 at 48 h [2]: > 100 µM
- MIC [3, 15]: 133 to 166 µM
- MIC [3, 16]: 40 to 50 µg/mL

Compound: N[C@@H](Cc1ccccc1)C(=O)O [L-Phenylalanine]
- absorption in man (%) [1, 14]: 100%

Compound: OC[C@@H](O)[C@@H](O)[C@H](O)[C@H](O)CO [Mannitol]
- absorption in man (%) ([1]; in vivo): 16%

Compound: CN(Cc1cnc2nc(N)nc(N)c2n1)c1ccc(C(=O)N[C@@H](CCC(=O)O)C(=O)O)cc1 [Methotrexate]
- absorption in man (%) ([1]; in vivo): 20%

Compound: C/C(=C\C(=O)OCCCCCCCCC(=O)O)C[C@@H]1OC[C@H](C[C@@H]2O[C@H]2[C@@H](C)[C@H](C)O)[C@@H](O)[C@H]1O [mupirocin, reference compound]
- MIC [12]: > 256 µg/mL

Compound: CCCCCCc1c(O)cc(CCCCC)oc1=O [pseudopyronine A]
- antibacterial activities [13]: moderate to poor

Compound: CCCCCCCc1cc(O)c(CCCCCC)c(=O)o1 [pseudopyronine B]
- antibacterial activities [13]: moderate to poor

Source: US10471043B2, “Compounds and methods of treating bacterial infections” (ULTUPHARMA AB, priority 2015, dated 2019)
